This note sets out measurements from US20160158200A1, “Combinations of Hepatitis C Virus Inhibitors” (priority 2013, published 2016).

In this experiment the test system is HCV genotype-1a variant with glutamine 30 changed to glutamate in the NS5A protein. Type of experiment: cell-based. Conditions: test compound titrated with BMS-790052 fixed at 200 nM; genotype 1a Q30E replicon. The gist of the method:
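Synergy was assessed by combining several fixed amounts of an NS5A-targeting compound with a titration of the second compound of interest.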
In general terms: Replicon systems follow genome replication, usually without infectious particles.

On to `CC(C)(C)[C@H](NC(=O)C1(C2(O)CCNCC2)CCC1)c1ncc(-c2ccc(-c3ccc(-c4cnc([C@@H](NC(=O)C5(C6(O)CCOCC6)CCC5)C(C)(C)C)[nH]4)cc3)cc2)[nH]1` [Compound B84], for which the “Fold-Synergistic 1a (Q30E)” value was over 100 fold.
For `CC(C)[C@H](NC(=O)OCc1ccccc1)c1ncc(-c2ccc(-c3ccc(-c4cnc([C@@H](NC(=O)OCc5ccccc5)C(C)C)[nH]4)cc3)cc2)[nH]1` [Compound S-215], the “Fold-Synergistic 1a (Q30E)” value is given as over 100 fold.
As to `CC1(C(=O)N[C@H](c2nc(-c3ccc(-c4ccc(-c5c[nH]c([C@@H](NC(=O)C6(C)CCCCC6O)C(C)(C)C)n5)cc4)cc3)c[nH]2)C(C)(C)C)CCCCC1O` (single isomer, unassigned) [Compound Y-105], the “Fold-Synergistic 1a (Q30E)” value is listed as over 100 fold.
In the case of `CC(O)C1(C(=O)N[C@H](c2ncc(-c3ccc(-c4ccc(-c5cnc([C@@H](NC(=O)C6(C(C)O)CC6)C(C)(C)C)[nH]5)cc4)cc3)[nH]2)C(C)(C)C)CC1` (single isomer, unassigned) [Compound B73], the “Fold-Synergistic 1a (Q30E)” value is on record as over 100 fold.
In the case of `O=C(c1nccc2c(Cl)cccc12)N1CCC[C@H]1c1ncc(-c2ccc(-c3ccc(-c4cnc([C@@H]5CCCN5C(=O)c5nccc6c(Cl)cccc56)[nH]4)cc3)cc2)[nH]1` [Compound S-206], the “Fold-Synergistic 1a (Q30E)” value is on record as over 100 fold.
As for `CC1([C@H](NC(=O)C2CCC(F)(F)CC2)c2ncc(-c3ccc(-c4ccc(-c5cnc([C@@H](NC(=O)C6CCC(F)(F)CC6)C6(C)CC6)[nH]5)cc4)cc3)[nH]2)CC1` [Compound Y-34], the figure is over 100 fold; as for `COC1(C(=O)N[C@H](c2nc(-c3ccc(-c4ccc(-c5c[nH]c([C@@H](NC(=O)C6(OC)CCC(F)(F)CC6)C(C)(C)C)n5)cc4)cc3)c[nH]2)C(C)(C)C)CCC(F)(F)CC1` [Compound P-34], over 100 fold; as for `CC(C)(C)[C@H](NC(=O)C(=O)N1CCC(F)(F)C1)c1nc(-c2ccc(-c3ccc(-c4c[nH]c([C@@H](NC(=O)C(=O)N5CCC(F)(F)C5)C(C)(C)C)n4)cc3)cc2)c[nH]1` [Compound W-22], over 100 fold.
As for `COC1(C(=O)N[C@H](c2nc(-c3ccc(-c4ccc(-c5c[nH]c([C@@H](NC(=O)C6(OC)CCC6)C(C)(C)C)n5)cc4)cc3)c[nH]2)C(C)(C)C)CCC1` [Compound P-21], the “Fold-Synergistic 1a (Q30E)” value is reported as over 100 fold.
As for `CC1(C(=O)N[C@H](c2nc(-c3ccc(-c4ccc(-c5c[nH]c([C@@H](NC(=O)C6(C)CC6)C(C)(C)C)n5)cc4)cc3)c[nH]2)C(C)(C)C)CC1` [Compound L-45], the “Fold-Synergistic 1a (Q30E)” value was over 100 fold.
In the case of `COC(C)(CCOCc1ccccc1)C(=O)N[C@H](c1nc(-c2ccc(-c3ccc(-c4c[nH]c([C@@H](NC(=O)C(C)(CCOCc5ccccc5)OC)C(C)(C)C)n4)cc3)cc2)c[nH]1)C(C)(C)C` (single isomer, unassigned) [Compound W-256b], the “Fold-Synergistic 1a (Q30E)” value is on record as over 100 fold.
On to `CC(O)C1(C(=O)N[C@H](c2ncc(-c3ccc(-c4ccc(-c5cnc([C@@H](NC(=O)C6(C(C)O)CC6)C(C)(C)C)[nH]5)cc4)cc3)[nH]2)C(C)(C)C)CC1` (single isomer, unassigned) [Compound B74], for which the “Fold-Synergistic 1a (Q30E)” value was over 100 fold.
Under `CC(C)(C)OC(=O)NC1CCCC(C(=O)NC(c2nc(-c3ccc(-c4ccc(-c5c[nH]c(C(NC(=O)C6CCCC(NC(=O)OC(C)(C)C)C6)C(C)(C)C)n5)cc4)cc3)c[nH]2)C(C)(C)C)C1` (mixture of isomers) [Compound S-266] stands over 100 fold.
Take `C#CCOC(=O)N1CCC[C@H]1c1ncc(-c2ccc(-c3ccc(-c4cnc([C@@H]5CCCN5C(=O)OCC#C)[nH]4)cc3)cc2)[nH]1` [Compound S-224]: the “Fold-Synergistic 1a (Q30E)” value is over 10 fold.
For the molecule `CC(C)[C@H](NC(=O)c1ccc(F)cc1F)c1ncc(-c2ccc(-c3ccc(-c4cnc([C@@H](NC(=O)c5ccc(F)cc5F)C(C)C)[nH]4)cc3)cc2)[nH]1` [Compound S-89], the “Fold-Synergistic 1a (Q30E)” value is given as over 100 fold.
`CC(C)[C@H](NC(=O)CCN1CCCC1=O)c1ncc(-c2ccc(-c3ccc(-c4cnc([C@@H](NC(=O)CCN5CCCC5=O)C(C)C)[nH]4)cc3)cc2)[nH]1` [Compound S-59]: the “Fold-Synergistic 1a (Q30E)” value is under 10 fold.
In the case of `CC(C)(C)[C@H](NC(=O)C(C)(O)C1(C)CC1)c1nc(-c2ccc(-c3ccc(-c4c[nH]c([C@@H](NC(=O)C(C)(O)C5(C)CC5)C(C)(C)C)n4)cc3)cc2)c[nH]1` (stereo partly drawn) [Compound L-93b], the “Fold-Synergistic 1a (Q30E)” value is on record as over 100 fold.
With `CC1CN(C(=O)C(=O)N[C@H](c2nc(-c3ccc(-c4ccc(-c5c[nH]c([C@@H](NC(=O)C(=O)N6CC(C)OC(C)C6)C(C)(C)C)n5)cc4)cc3)c[nH]2)C(C)(C)C)CC(C)O1` (single isomer, unassigned) [Compound W-40C], the “Fold-Synergistic 1a (Q30E)” value is listed as over 100 fold.
Regarding `CC(C)(C)[C@H](Nc1ncccn1)c1nc(-c2ccc(-c3ccc(-c4c[nH]c([C@@H](Nc5ncc(Br)cn5)C(C)(C)C)n4)cc3)cc2)c[nH]1` [Compound W-31], the “Fold-Synergistic 1a (Q30E)” value was over 10 fold.
As for `O=C(C1Cc2ccccc2O1)N1CCC[C@H]1c1ncc(-c2ccc(-c3ccc(-c4cnc([C@@H]5CCCN5C(=O)C5Cc6ccccc6O5)[nH]4)cc3)cc2)[nH]1` (stereo partly shown) [Compound S-157], the “Fold-Synergistic 1a (Q30E)” value is on record as over 10 fold.
Under `CC1(C(=O)N[C@H](c2nc(-c3ccc(-c4ccc(-c5c[nH]c([C@@H](NC(=O)C6(C)CCC(F)(F)CC6)C(C)(C)C)n5)cc4)cc3)c[nH]2)C(C)(C)C)CCC(F)(F)CC1` [Compound P-20] stands over 100 fold; under `CC(C)(C)OC(=O)N1CC(F)(F)CC1(C)C(=O)N[C@H](c1nc(-c2ccc(-c3ccc(-c4c[nH]c([C@@H](NC(=O)C5(C)CC(F)(F)CN5C(=O)OC(C)(C)C)C(C)(C)C)n4)cc3)cc2)c[nH]1)C(C)(C)C` (single isomer, unassigned) [Compound W-76], over 100 fold.
As for `CC(C)(C)[C@H](NC(=O)C(=O)N1CCC(F)CC1)c1nc(-c2ccc(-c3ccc(-c4c[nH]c([C@@H](NC(=O)C(=O)N5CCC(F)CC5)C(C)(C)C)n4)cc3)cc2)c[nH]1` [Compound W-26], the “Fold-Synergistic 1a (Q30E)” value is over 100 fold.
Turning to `CC(O)C(C)(C)C(=O)N[C@H](c1ncc(-c2ccc(-c3ccc(-c4cnc([C@@H](NC(=O)C(C)(C)C(C)O)C(C)(C)C)[nH]4)cc3)cc2)[nH]1)C(C)(C)C` (single isomer, unassigned) [Compound B76], the “Fold-Synergistic 1a (Q30E)” value is on record as over 100 fold.
With `CC(C)C(NC(=O)C(=O)N(C(C)C)C1CC1)c1nc(-c2ccc(-c3ccc(-c4c[nH]c(C(NC(=O)C(=O)N(C(C)C)C5CC5)C(C)C)n4)cc3)cc2)c[nH]1` (stereo not shown) [Compound W-55], the “Fold-Synergistic 1a (Q30E)” value is given as over 100 fold.
In the case of `CC(C)[C@H](NC(=O)N(C(C)C)C(C)C)c1nc(-c2ccc(-c3ccc(-c4c[nH]c([C@@H](NC(=O)N(C(C)C)C(C)C)C(C)C)n4)cc3)cc2)c[nH]1` [Compound S-230], the “Fold-Synergistic 1a (Q30E)” value is given as over 100 fold.
Under `Cn1cccc1C(O)C(C)(C)C(=O)N[C@H](c1nc(-c2ccc(-c3ccc(-c4c[nH]c([C@@H](NC(=O)C(C)(C)C(O)c5cccn5C)C(C)(C)C)n4)cc3)cc2)c[nH]1)C(C)(C)C` (mixture of isomers) [Compound N-129] stands over 100 fold; under `CC(C)(C)[C@H](NC(=O)C1CC2(C1)OCCO2)c1nc(-c2ccc(-c3ccc(-c4c[nH]c([C@@H](NC(=O)C5CC6(C5)OCCO6)C(C)(C)C)n4)cc3)cc2)c[nH]1` (stereo partly shown) [Compound W-178], over 100 fold; under `O=C(N1CCC[C@H]1c1ncc(-c2ccc(-c3ccc(-c4cnc([C@@H]5CCCN5C(=O)C5(c6ccc(F)cc6Cl)CCCC5)[nH]4)cc3)cc2)[nH]1)C1(c2ccc(F)cc2Cl)CCCC1` [Compound S-156], under 10 fold.
As to `CC(C)(C)OC(=O)N1CCC(C)(C)[C@H]1C(=O)N[C@H](c1nc(-c2ccc(-c3ccc(-c4c[nH]c([C@@H](NC(=O)[C@H]5N(C(=O)OC(C)(C)C)CCC5(C)C)C(C)(C)C)n4)cc3)cc2)c[nH]1)C(C)(C)C` [Compound W-214], the “Fold-Synergistic 1a (Q30E)” value is over 100 fold.
Take `CCOC(C)(C)C(=O)N[C@H](c1nc(-c2ccc(-c3ccc(-c4c[nH]c([C@@H](NC(=O)C(C)(C)OCC)C(C)(C)C)n4)cc3)cc2)c[nH]1)C(C)(C)C` [Compound P-26]: the “Fold-Synergistic 1a (Q30E)” value is over 100 fold.
As for `COC(C)(COCc1ccccc1)C(=O)N[C@H](c1nc(-c2ccc(-c3ccc(-c4c[nH]c([C@@H](NC(=O)C(C)(COCc5ccccc5)OC)C(C)(C)C)n4)cc3)cc2)c[nH]1)C(C)(C)C.O=C(O)C(F)(F)F.O=C(O)C(F)(F)F` (single isomer, unassigned) [Compound W-232], the “Fold-Synergistic 1a (Q30E)” value is over 100 fold.
Consider `CCCCOC(=O)N[C@@H](C(=O)N[C@H](c1ncc(-c2ccc(-c3ccc(-c4cnc([C@@H](NC(=O)[C@H](NC(=O)OCCCC)C(C)C)C(C)C)[nH]4)cc3)cc2)[nH]1)C(C)C)C(C)C` [Compound S-249], for which the “Fold-Synergistic 1a (Q30E)” value is recorded as over 100 fold.
Under `CC1CN(C(=O)C(=O)NC(c2nc(-c3ccc(-c4ccc(-c5c[nH]c(C(NC(=O)C(=O)N6CC(C)OC(C)C6)C(C)C)n5)cc4)cc3)c[nH]2)C(C)C)CC(C)O1` (stereo not shown) [Compound W-54] stands over 100 fold.
With `COC1(C(=O)C(=O)N[C@H](c2ncc(-c3ccc(-c4ccc(-c5cnc([C@@H](NC(=O)C(=O)C6(OC)CC6)C(C)C)[nH]5)cc4)cc3)[nH]2)C(C)C)CC1` [Compound P-123], the “Fold-Synergistic 1a (Q30E)” value is listed as over 100 fold.
`CC(C)(C)[C@H](NC(=O)C12CCC(F)(CC1)CC2)c1nc(-c2ccc(-c3ccc(-c4c[nH]c([C@@H](NC(=O)C56CCC(F)(CC5)CC6)C(C)(C)C)n4)cc3)cc2)c[nH]1` [Compound P-40]: the “Fold-Synergistic 1a (Q30E)” value is over 100 fold.
Take `C#CCOC(=O)N[C@H](c1ncc(-c2ccc(-c3ccc(-c4cnc([C@@H](NC(=O)OCC#C)C(C)C)[nH]4)cc3)cc2)[nH]1)C(C)C` [Compound S-212]: the “Fold-Synergistic 1a (Q30E)” value is listed as over 10 fold.
